Among the test systems are CAKI-1 renal; DU-145 prostate; EKVX NSCLC; IGROV1 ovarian; K-562 leukemia; M14 melanoma; MALME-3M melanoma; OVCAR-5 ovarian; SF-268 CNS; SNB-19 CNS.
What all share (assay): DTP human tumour cell line panel, 48 h

Where “and” joins values, the source holds several entries; their conditions need not be identical. Equal values may be shown once.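 Tested at 5 concentrations; 48 h exposure; 96-well plates; endpoints linearly interpolated, else capped at highest concentration. GI50: concentration for 50% inhibition of growth. TGI marks complete inhibition of growth.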 Bounds are passed on as bounds.

On to `COc1c(C=O)c2c(c(OC)c1OC)-c1ccc(OC)c(=O)cc1[C@@H](NC(C)=O)CC2`, for which the total growth inhibition concentration (TGI) in the test on CAKI-1 renal was greater than 30.9 µM; with DU-145 prostate it was greater than 100 µM; in the test on EKVX NSCLC, greater than 100 µM; with IGROV1 ovarian, 76.6 µM; in the test with K-562 leukemia it was greater than 100 µM; in the test with M14 melanoma it was greater than 25.2 µM. Moreover, the TGI in the test with MALME-3M melanoma was greater than 100 µM; with OVCAR-5 ovarian, greater than 100 µM; in the test with SF-268 CNS, 30.3 µM; in the test on SNB-19 CNS, greater than 92.8 µM.
On to `COc1ccc2oc(=O)cc(C(c3ccc[nH]3)c3ccc[nH]3)c2c1`, for which the total growth inhibition concentration (TGI) in the test with CAKI-1 renal was 13.1 µM; in the test with DU-145 prostate, 12.8 µM; with EKVX NSCLC, 21.5 µM; in the test on IGROV1 ovarian it was 17.6 µM; with K-562 leukemia, 20.8 µM; in the test with M14 melanoma it was 0.191 µM. Also, the TGI with MALME-3M melanoma was determined as 17.7 µM; in the test with OVCAR-5 ovarian it was 19.9 µM; in the test with SF-268 CNS, 16.3 µM; in the test with SNB-19 CNS it was 16.4 µM. Moreover, the concentration for 50% growth inhibition (GI50) was 0.278 µM in the test with EKVX NSCLC; 0.106 µM in the test on IGROV1 ovarian; 0.118 µM in the test with K-562 leukemia; 0.0837 µM with M14 melanoma; 0.783 µM with MALME-3M melanoma; 0.128 µM with OVCAR-5 ovarian. The GI50 was 0.129 µM in the test with SF-268 CNS and 0.132 µM in the test on SNB-19 CNS.
For `CCN1CCN(Cc2ccc(-c3cc4c(N[C@H](C)c5ccccc5)ncnc4[nH]3)cc2)CC1`, the GI50 with CAKI-1 renal is 0.252 µM and 1.27 µM; with DU-145 prostate, 1.78 µM and 2.38 µM; in the test on EKVX NSCLC it was 0.308 µM; in the test with IGROV1 ovarian, 0.112 µM and 0.176 µM; in the test with K-562 leukemia, 0.49 µM and 0.626 µM; with M14 melanoma it was 1.84 µM and 1.92 µM. The GI50 in the test on MALME-3M melanoma was 1.92 µM and 1.78 µM; in the test on OVCAR-5 ovarian, 0.708 µM and 1.61 µM; in the test with SF-268 CNS it was 2.43 µM and 4.11 µM; in the test on SNB-19 CNS it was 6.11 µM and 4.04 µM. The TGI in the test on CAKI-1 renal is 3.17 µM and > 10 µM; in the test with DU-145 prostate, 19.9 µM and > 10 µM; in the test with EKVX NSCLC it was greater than 10 µM; in the test with IGROV1 ovarian, 1.51 µM and 7.17 µM; in the test with K-562 leukemia, 12.4 µM and > 10 µM; in the test on M14 melanoma, 3.77 µM and 4.4 µM. Besides, the TGI with MALME-3M melanoma was 4.14 µM and 4.02 µM; in the test on OVCAR-5 ovarian, 23.9 µM and > 10 µM; in the test with SF-268 CNS, 18.7 µM and > 10 µM; in the test with SNB-19 CNS it was 29.7 µM and > 10 µM.
Turning to `C[C@@H]1COCCN1c1cc(C2([S@](C)(=N)=O)CC2)nc(-c2ccnc3[nH]ccc23)n1`, the GI50 in the test with CAKI-1 renal is 6.06 µM and 4.17 µM; with DU-145 prostate, 3.1 µM and 3.64 µM; with EKVX NSCLC, 6.07 µM and > 10 µM; in the test on IGROV1 ovarian, 4.24 µM and 2.23 µM; in the test with K-562 leukemia, 3.76 µM and 2.96 µM; with M14 melanoma, 1.69 µM and 2.38 µM. Besides, the GI50 with MALME-3M melanoma is 8.22 µM and 6.49 µM; with OVCAR-5 ovarian it was 5.03 µM and 6.98 µM; in the test on SF-268 CNS, 7.1 µM and > 10 µM; in the test with SNB-19 CNS, 3.96 µM and 6.33 µM. Also, the total growth inhibition concentration (TGI) with CAKI-1 renal is 75.9 µM and > 10 µM; in the test with DU-145 prostate, greater than 100 µM; in the test with EKVX NSCLC, 61.7 µM and > 10 µM; in the test on IGROV1 ovarian, 68.6 µM and > 10 µM; in the test with K-562 leukemia, greater than 100 µM; in the test on M14 melanoma it was 9.96 µM and > 10 µM. Besides, the total growth inhibition concentration (TGI) was 45.1 µM and > 10 µM in the test on MALME-3M melanoma; 99.8 µM and > 10 µM with OVCAR-5 ovarian; greater than 100 µM in the test with SF-268 CNS; greater than 100 µM in the test on SNB-19 CNS.
For the compound `CCOC(=O)c1ccc2[nH]c(-c3ccc(S(=O)(=O)F)cc3)cc(=O)c2c1`, the concentration for total growth inhibition (TGI) in the test with CAKI-1 renal, with DU-145 prostate, in the test with EKVX NSCLC, with IGROV1 ovarian, with K-562 leukemia and in the test with M14 melanoma was greater than 100 µM in each case. Also, the total growth inhibition concentration (TGI) with MALME-3M melanoma is 90.6 µM; in the test with OVCAR-5 ovarian, greater than 100 µM; with SF-268 CNS, greater than 100 µM; with SNB-19 CNS, greater than 100 µM.
`CCCCON(OC(=O)c1ccccc1)C(=O)c1ccccc1`: the GI50 in the test with CAKI-1 renal was greater than 100 µM; with DU-145 prostate, greater than 100 µM; with EKVX NSCLC it was greater than 100 µM; in the test with IGROV1 ovarian it was greater than 100 µM; in the test on K-562 leukemia it was 93.4 µM; in the test with M14 melanoma, greater than 100 µM. The GI50 in the test with MALME-3M melanoma, in the test on OVCAR-5 ovarian, with SF-268 CNS and in the test with SNB-19 CNS was greater than 100 µM throughout. The TGI with CAKI-1 renal, in the test on DU-145 prostate, in the test on EKVX NSCLC, with IGROV1 ovarian, with K-562 leukemia and with M14 melanoma was greater than 100 µM each time. The TGI in the test with MALME-3M melanoma, in the test with OVCAR-5 ovarian, in the test with SF-268 CNS and in the test on SNB-19 CNS was greater than 100 µM each time.
As to `COc1cc2c3c(n(CCCN)c(=O)c2cc1OC)-c1ccccc1C3=O`, the 50% growth inhibitory concentration (GI50) in the test on CAKI-1 renal is 0.282 µM; with DU-145 prostate it was 1.83 µM; in the test on EKVX NSCLC, 3.85 µM; in the test on IGROV1 ovarian, 1.45 µM; with K-562 leukemia, 0.911 µM; in the test with M14 melanoma, 0.199 µM. Also, the GI50 with MALME-3M melanoma is 0.0918 µM; in the test with OVCAR-5 ovarian it was 14.3 µM; in the test with SF-268 CNS it was 1.71 µM; with SNB-19 CNS it was 2.95 µM. In addition, the TGI in the test with CAKI-1 renal was 2.94 µM; in the test with DU-145 prostate, 4.81 µM; with EKVX NSCLC, 10.3 µM; in the test with IGROV1 ovarian, greater than 100 µM; with M14 melanoma, 2.28 µM; in the test with MALME-3M melanoma it was 17.5 µM. Also, the TGI is 29.2 µM in the test on OVCAR-5 ovarian, greater than 21.6 µM in the test with SF-268 CNS and greater than 42 µM in the test on SNB-19 CNS.
On to `Cc1cccc(NC(=O)CCc2ccc(N3C(N)=NC(N)=NC3(C)C)cc2)c1`, for which the GI50 in the test on CAKI-1 renal is 97.3 µM; in the test with DU-145 prostate it was 0.941 µM; with IGROV1 ovarian, 0.603 µM; in the test with K-562 leukemia, 0.715 µM; in the test on M14 melanoma, greater than 29.2 µM; in the test on MALME-3M melanoma, greater than 46.9 µM. Also, the GI50 was greater than 37.2 µM in the test with OVCAR-5 ovarian, 0.547 µM in the test with SF-268 CNS and 8.35 µM in the test with SNB-19 CNS. The concentration for total growth inhibition (TGI) with CAKI-1 renal, in the test with DU-145 prostate, in the test on EKVX NSCLC, in the test with IGROV1 ovarian, in the test with K-562 leukemia and with M14 melanoma was greater than 100 µM each time. The TGI with MALME-3M melanoma, in the test with OVCAR-5 ovarian, in the test with SF-268 CNS and in the test with SNB-19 CNS was greater than 100 µM each time.

These data come from PubChem BioAssay (NCI).
